Data taken from US20110046190A1, “COMBINATIONS COMPRISING A SELECTIVE CYCLOOXYGENASE-2 INHIBITOR” (priority 2001, published 2011).
Where two headings read alike, the source gives them in different places.

Key:
[1] = test system: intestinal polyps; experiment: mouse model of adenomatous polyposis, prevention and treatment of intestinal polyps; type: in vivo; conditions: COX 125 ppm in feed ad libitum
Protocol: (§1) 5-methyl-2-(2′-chloro-6′-fluoro-anilino)-phenyl acetic acid (“COX”) and (+)-discodermolide (“disco”) are tested as single agents and together as combination therapy in a mouse model of adenomatous polyposis for the prevention and treatment of intestinal polyps. (+)-Discodermolide is administered once intravenously to the mice at 15 mg/kg as a solution in 16.7% Chremophor EI, 8.3% ethanol, and 75% D5W. COX is administered in the feed mix at a concentration of 125 ppm.
(§2) 5-methyl-2-(2′-chloro-6′-fluoro-anilino)-phenyl acetic acid (“COX”) and (R)-4-(4-((1-phenylethyl)amino)-7H-pyrrolo(2,3-d)pyrimidin-6-yl)-phenol (“EGFR”) are tested as single agents and together as combination therapy in a mouse model of adenomatous polyposis for the prevention and treatment of intestinal polyps. EGFR is administered to the mice orally at 50 mg/kg, as a suspension in 0.5% carboxymethylcellulose, b.i.d., 5 days a week for three weeks. COX is administered in the feed mix at a concentration of 125 ppm.
(§3) 5-methyl-2-(2′-chloro-6′-fluoro-anilino)-phenyl acetic acid (“COX”) and 1-(4-chloroanilino)-4-(4-pyridylmethyl)phthalazine (“VEGFR”) are tested as single agents and together as combination therapy in a mouse model of adenomatous polyposis for the prevention and treatment of intestinal polyps. VEGFR is administered to the mice orally at 100 mg/kg, 5 times a week for three weeks. COX is administered in the feed mix at a concentration of 125 ppm.

[2] = COX 125 ppm in feed ad libitum
Protocol: as §1, §2, §3

[3] = test system: DU 145 prostate tumor cell line; experiment: mouse model of prostate cancer, efficacy against established tumors; type: in vivo; conditions: Example 4; DU 145 prostate tumors in mice; COX 125 ppm in feed; VEGF 100 mg/kg p.o. q.d. 5x/week for three weeks
Protocol: (§4) 5-methyl-2-(2′-chloro-6′-fluoro-anilino)-phenyl acetic acid (“COX”) and 1-(4-chloroanilino)-4-(4-pyridylmethyl)phthalazine (“VEGFR”) are tested as single agents and together as combination therapy in a mouse model of prostrate cancer (orthoscopically implanted DU 145 prostate tumor cell line) for efficacy against established tumors. VEGFR is administered to the mice orally at 100 mg/kg, 5 times a week for three weeks, as a suspension in 0.5% microcrystalline cellulose, 0.1% Tween 80 in water. COX is administered in the feed mix at a concentration of 125 ppm.

[4] = Example 4; DU 145 prostate tumors in mice; COX 125 ppm in feed; VEGF 100 mg/kg p.o. q.d. 5x/week for three weeks
Protocol: as §4

[5] = test system: tumor vascular permeability; conditions: studies in humans; cited from earlier work
[6] = Example 2, first experiment, EGFR 50 mg/kg p.o. b.i.d. 5x/week for three weeks
[7] = Example 2, second (duplicate) experiment, EGFR 50 mg/kg p.o. b.i.d. 5x/week for three weeks
[8] = Example 1, first experiment, disco 15 mg/kg i.v. once
[9] = Example 1, second (duplicate) experiment, disco 15 mg/kg i.v. once
[10] = Example 3, first experiment, VEGF 100 mg/kg p.o. 5x/week for three weeks
[11] = Example 3, second (duplicate) experiment, VEGF 100 mg/kg p.o. 5x/week for three weeks

C[C@@H](Nc1ncnc2[nH]c(-c3ccc(O)cc3)cc12)c1ccccc1 [EGFR, (R)-4-(4-((1-phenylethyl)amino)-7H-pyrrolo(2,3-d)pyrimidin-6-yl)-phenol]
% T/C (polyps) [1, 6]: 37% | Mean Intestinal Polyp Count (# ± SEM) [1, 6]: 8 ± 0.2 # | % T/C (polyps) [1, 7]: 27% | Mean Intestinal Polyp Count (# ± SEM) [1, 7]: 9 ± 0.3 # | Dead/Total [2, 6]: 0/7 | Dead/Total [2, 7]: 0/7

(+)-discodermolide
% T/C (polyps) [1, 8]: 56% | Mean Intestinal Polyp Count (# ± SEM) [1, 8]: 15 ± 0.2 # | % T/C (polyps) [1, 9]: 64% | Mean Intestinal Polyp Count (# ± SEM) [1, 9]: 15 ± 0.22 # | % Body Wt. Change [2, 8]: +0.9 ± 0.1% | Dead/Total [2, 8]: 0/7 | % Body Wt. Change [2, 9]: +4.0 ± 0.12% | Dead/Total [2, 9]: 0/7

Clc1ccc(Nc2nnc(Cc3ccncc3)c3ccccc23)cc1 [VEGF, 1-(4-chloroanilino)-4-(4-pyridylmethyl)phthalazine]
% T/C (polyps) [1, 10]: 57% | Mean Intestinal Polyp Count (# ± SEM) [1, 10]: 15 ± 0.48 # | % T/C (polyps) [1, 11]: 60% | Mean Intestinal Polyp Count (# ± SEM) [1, 11]: 17 ± 0.19 # | Dead/Total [2, 10]: 0/6 | Dead/Total [2, 11]: 0/7 | % T/C (tumors) [3]: 57% | Mean Tumor Weight (mg ± SEM) [3]: 243 ± 37 mg | Dead/Total [4]: 1/12 | tolerability [5]: well tolerated | tumor vascular permeability [5]: reduce tumor vascular permeability

Cc1ccc(Nc2c(F)cccc2Cl)c(CC(=O)O)c1 [COX, 5-methyl-2-(2′-chloro-6′-fluoro-anilino)-phenyl acetic acid]
% T/C (polyps) [1, 8]: 56% | Mean Intestinal Polyp Count (# ± SEM) [1, 8]: 15 ± 0.4 # | % T/C (polyps) [1, 9]: 57% | Mean Intestinal Polyp Count (# ± SEM) [1, 9]: 13 ± 0.2 # | % T/C (polyps) [1, 6]: 43% | Mean Intestinal Polyp Count (# ± SEM) [1, 6]: 9 ± 0.4 # | % T/C (polyps) [1, 7]: 36% | Mean Intestinal Polyp Count (# ± SEM) [1, 7]: 12 ± 0.9 # | % T/C (polyps) [1, 10]: 44% | Mean Intestinal Polyp Count (# ± SEM) [1, 10]: 12 ± 0.22 # | % T/C (polyps) [1, 11]: 44% | Mean Intestinal Polyp Count (# ± SEM) [1, 11]: 13 ± 0.18 # | Dead/Total [2, 8]: 0/7 | Dead/Total [2, 9]: 0/7 | Dead/Total [2, 6]: 0/7 | Dead/Total [2, 7]: 0/7 | Dead/Total [2, 10]: 0/7 | Dead/Total [2, 11]: 0/7 | % T/C (tumors) [3]: 80% | Mean Tumor Weight (mg ± SEM) [3]: 343 ± 52 mg | Dead/Total [4]: 1/12
